The text below walks through data of patent publication US8436011B2, “Pyridinopyridinone derivatives, preparation thereof and therapeutic use thereof” (Sanofi, priority 2008, dated 2013).

Where “and” joins values, the source holds several entries; their conditions need not be identical. Equal entries are not always repeated. Structures can show the parent of a compound that is named as a salt.

For orientation: melting point means the temperature of the solid-liquid transition. In turn, `CCn1c(N)c(C(=O)NC)c(=O)c2ccc(-c3ccc(CC(=O)Nc4ccccc4)cc3)nc21` had a melting point of 299 °C. Regarding `CCn1c(N)c(C(=O)NC)c(=O)c2ccc(-c3ccc(CC(=O)NC4CCCC4)cc3)nc21`, the melting point turned out to be 300 °C. Next, `CCN1CCCC1CN(C)C(=O)Cc1ccc(-c2ccc3c(=O)c(C(=O)NC)c(N)n(CC)c3n2)cc1` (stereo not drawn): 138 °C; `CCn1c(N)c(C(=O)NC)c(=O)c2ccc(-c3ccc(CC(=O)NCCc4ccccc4)cc3)nc21`: 270 °C. Regarding `CCN1CCCC1CNC(=O)Cc1ccc(-c2ccc3c(=O)c(C(=O)NC)c(N)n(CC4CC4)c3n2)cc1` (stereo not drawn), the melting point came out at 260 °C. Next, `CCn1c(N)c(C(=O)NC)c(=O)c2ccc(-c3ccc(CC(=O)Nc4ccncc4)cc3)nc21` (as salt: HCl): 250 °C; `CCn1c(N)c(C(=O)NC)c(=O)c2ccc(-c3ccc(CC(=O)NCCc4ccccn4)cc3)nc21` (as salt: HCl): 248 °C; `CNC(=O)c1c(N)n(CCCOC)c2nc(-c3ccc(CC(=O)Nc4ccccn4)cc3)ccc2c1=O` (as salt: HCl): 230 °C.

Compound `CCn1c(N)c(C(=O)NC)c(=O)c2ccc(-c3ccc(CC(=O)Nc4cccnc4)cc3)nc21` (as salt: HCl) [compound 3, 2-amino-1-ethyl-N-methyl-4-oxo-7-{4-[2-oxo-2-(pyrid-3-ylamino)ethyl]-phenyl}-1,4-dihydro-1,8-naphthyridine-3-carboxamide] gave a melting point of 270 °C. Next, `CCn1c(N)c(C(=O)NC)c(=O)c2ccc(-c3ccc(CC(=O)Nc4ccccn4)cc3)nc21` (as salt: HCl) [compound 4, 2-amino-1-ethyl-N-methyl-4-oxo-7-{4-[2-oxo-2-(pyrid-2-ylamino)ethyl]-phenyl}-1,4-dihydro-1,8-naphthyridine-3-carboxamide]: 258 °C.

As to `CCn1c(N)c(C(=O)NC)c(=O)c2ccc(-c3ccc(CC(=O)NCc4ccncc4)cc3)nc21` (as salt: HCl) [compound 7, 2-amino-1-ethyl-N-methyl-4-oxo-7-(4-{2-oxo-2-[(pyrid-4-ylmethyl)amino]-ethyl}phenyl)-1,4-dihydro-1,8-naphthyridine-3-carboxamide], the melting point is 230 °C. Next, `CCn1c(N)c(C(=O)NC)c(=O)c2ccc(-c3ccc(CC(=O)NCc4ccccn4)cc3)nc21` (as salt: HCl) [compound 8, 2-amino-1-ethyl-N-methyl-4-oxo-7-(4-{2-oxo-2-[(pyrid-2-ylmethyl)amino]-ethyl}phenyl)-1,4-dihydro-1,8-naphthyridine-3-carboxamide]: 268 °C; `CCn1c(N)c(C(=O)NC)c(=O)c2ccc(-c3ccc(CC(=O)NCCN4CCOCC4)cc3)nc21` (as salt: HCl) [compound 18, 2-amino-1-ethyl-N-methyl-7-(4-{2-[(2-morpholin-4-ylethyl)amino]-2-oxoethyl}phenyl)-4-oxo-1,4-dihydro-1,8-naphthyridine-3-carboxamide]: 220 to 222 °C; `CCn1c(N)c(C(=O)NC)c(=O)c2ccc(-c3ccc(CC(=O)Nc4ccccn4)cn3)nc21` (as salt: HCl) [compound 19, 2-amino-1-ethyl-N-methyl-4-oxo-7-{5-[2-oxo-2-(pyrid-2-ylamino)-ethyl]pyrid-2-yl}-1,4-dihydro-1,8-naphthyridine-3-carboxamide]: 268 to 288 °C.

Compound `CCn1c(N)c(C(=O)NC)c(=O)c2ccc(-c3ccc(C(C)C(=O)Nc4ccccn4)cc3)nc21` (stereo not drawn) (as salt: HCl) [compound 20, 2-amino-1-ethyl-N-methyl-7-{4-[1-methyl-2-oxo-2-(pyrid-2-ylamino)ethyl]-phenyl}-4-oxo-1,4-dihydro-1,8-naphthyridine-3-carboxamide] registered a melting point of 188 °C. Next, `CCN1CCOCC1CNC(=O)Cc1ccc(-c2ccc3c(=O)c(C(=O)NC)c(N)n(CC)c3n2)cc1` (stereo not drawn) (as salt: HCl) [compound 22, 2-amino-1-ethyl-7-[4-(2-{[(4-ethylmorpholin-3-yl)methyl]amino}-2-oxoethyl)phenyl]-N-methyl-4-oxo-1,4-dihydro-1,8-naphthyridine-3-carboxamide]: 188 to 190 °C and 190 °C; `CCN1CCOCC1CNC(=O)Cc1ccc(-c2ccc3c(=O)c(C(=O)NC)c(N)n(CC)c3n2)cn1` (stereo not drawn) (as salt: HCl) [compound 23, 2-amino-1-ethyl-7-[6-(2-{[(4-ethylmorpholin-3-yl)methyl]amino}-2-oxoethyl)pyrid-3-yl]-N-methyl-4-oxo-1,4-dihydro-1,8-naphthyridine-3-carboxamide]: 199 °C; `CCN1CC(F)(F)C[C@H]1CNC(=O)Cc1ccc(-c2ccc3c(=O)c(C(=O)NC)c(N)n(CC)c3n2)cc1` (as salt: HCl) [compound 24, 2-amino-1-ethyl-7-{4-[2-({[(2S)-1-ethyl-4,4-difluoropyrrolidin-2-yl]methyl}-amino)-2-oxoethyl]phenyl}-N-methyl-4-oxo-1,4-dihydro-1,8-naphthyridine-3-carboxamide]: 266 °C. On to `CCN1CCOCC1CNC(=O)C(C)c1ccc(-c2ccc3c(=O)c(C(=O)NC)c(N)n(CC)c3n2)cc1` (stereo not drawn) (as salt: HCl) [compound 25, 2-amino-1-ethyl-7-[4-(2-{[(4-ethylmorpholin-3-yl)methyl]amino}-1-methyl-2-oxoethyl)phenyl]-N-methyl-4-oxo-1,4-dihydro-1,8-naphthyridine-3-carboxamide], for which the melting point was determined as 190 °C.

`CCN1C[C@H](F)C[C@H]1CNC(=O)Cc1ccc(-c2ccc3c(=O)c(C(=O)NC)c(N)n(CC)c3n2)cc1` (as salt: HCl) [compound 26, 2-amino-1-ethyl-7-{4-[2-({[(2S,4R)-1-ethyl-4-fluoropyrrolidin-2-yl]methyl}-amino)-2-oxoethyl]phenyl}-N-methyl-4-oxo-1,4-dihydro-1,8-naphthyridine-3-carboxamide] returned a melting point of 170 °C.

In turn, `CCn1c(N)c(C(=O)NC)c(=O)c2ccc(-c3ccc(CC(=O)NC[C@H]4CCCN4CCF)cn3)nc21` (as salt: HCl) [compound 29, 2-amino-1-ethyl-7-{5-[2-({[(2R)-1-(2-fluoroethyl)pyrrolidin-2-yl]methyl}-amino)-2-oxoethyl]pyrid-2-yl}-N-methyl-4-oxo-1,4-dihydro-1,8-naphthyridine-3-carboxamide] returned a melting point of 194 °C. Next, `CCn1c(N)c(C(=O)NC)c(=O)c2ccc(-c3ccc(CC(=O)NC[C@H]4CCCN4CC(F)F)cc3)nc21` (as salt: HCl) [compound 31, 2-amino-7-{4-[2-({[(2R)-1-(2,2-difluoroethyl)pyrrolidin-2-yl]methyl}amino)-2-oxoethyl]phenyl}-1-ethyl-N-methyl-4-oxo-1,4-dihydro-1,8-naphthyridine-3-carboxamide]: 214 to 228 °C. The compound `CCn1c(N)c(C(=O)NC)c(=O)c2ccc(-c3ccc(CC(=O)NCC4COCCN4C(C)C)cc3)nc21` (stereo not drawn) (as salt: HCl) [compound 32, 2-amino-1-ethyl-N-methyl-7-{4-[2-({[4-(1-methylethyl)morpholin-3-yl]-methyl}amino)-2-oxoethyl]phenyl}-4-oxo-1,4-dihydro-1,8-naphthyridine-3-carboxamide] displayed a melting point of 192 °C. As for `CCn1c(N)c(C(=O)NC)c(=O)c2ccc(-c3ccc(CC(=O)NCC4COCCN4C4CC4)cc3)nc21` (stereo not drawn) (as salt: HCl) [compound 33, 2-amino-7-[4-(2-{[(4-cyclopropylmorpholin-3-yl)methyl]amino}-2-oxoethyl)phenyl]-1-ethyl-N-methyl-4-oxo-1,4-dihydro-1,8-naphthyridine-3-carboxamide], the melting point turned out to be 250 °C. Next, `CCn1c(N)c(C(=O)NC)c(=O)c2ccc(-c3ccc(CC(=O)NC[C@H]4CCCN4CC(F)F)cn3)nc21` (as salt: HCl) [compound 34, 2-amino-7-{5-[2-({[(2R)-1-(2,2-difluoroethyl)pyrrolidin-2-yl]methyl}amino)-2-oxoethyl]pyrid-2-yl}-1-ethyl-N-methyl-4-oxo-1,4-dihydro-1,8-naphthyridine-3-carboxamide]: 260 °C; `CCn1c(N)c(C(=O)NC)c(=O)c2ccc(-c3ccc(CC(=O)NCc4cncn4C)cc3)nc21` (as salt: HCl) [compound 36, 2-amino-1-ethyl-N-methyl-7-[4-(2-{[(1-methyl-1H-imidazol-5-yl)methyl]amino}-2-oxoethyl)phenyl]-4-oxo-1,4-dihydro-1,8-naphthyridine-3-carboxamide]: 270 °C. Next, `CCn1c(N)c(C(=O)NC)c(=O)c2ccc(-c3ccc(CC(=O)NCCc4cccnc4)cc3)nc21` (as salt: HCl) [compound 37, 2-amino-1-ethyl-N-methyl-4-oxo-7-(4-{2-oxo-2-[(2-pyrid-3-ylethyl)amino]-ethyl}phenyl)-1,4-dihydro-1,8-naphthyridine-3-carboxamide]: 222 °C; `CCn1c(N)c(C(=O)NC)c(=O)c2ccc(-c3ccc(CC(=O)NCCCN4CCOCC4)cc3)nc21` (as salt: HCl) [compound 38, 2-amino-1-ethyl-N-methyl-7-(4-{2-[(3-morpholin-4-ylpropyl)amino]-2-oxoethyl}phenyl)-4-oxo-1,4-dihydro-1,8-naphthyridine-3-carboxamide]: 196 °C; `CCN1CCCC1CNC(=O)Cc1csc(-c2ccc3c(=O)c(C(=O)NC)c(N)n(CC)c3n2)n1` (stereo not drawn) (as salt: HCl) [compound 43, 2-amino-1-ethyl-7-[4-(2-{[(1-ethylpyrrolidin-2-yl)methyl]amino}-2-oxoethyl)-1,3-thiazol-2-yl]-N-methyl-4-oxo-1,4-dihydro-1,8-naphthyridine-3-carboxamide]: 228 °C.

For the compound `CCN1CCCC1CNC(=O)Cc1ccc(-c2ccc3c(=O)c(C(=O)NC)c(N)n(CC)c3n2)cc1Cl` (stereo not drawn) (as salt: HCl) [compound 57, 2-amino-7-[3-chloro-4-(2-{[(1-ethylpyrrolidin-2-yl)methyl]amino}-2-oxoethyl)phenyl]-1-ethyl-N-methyl-4-oxo-1,4-dihydro-1,8-naphthyridine-3-carboxamide], the melting point stood at 228 °C.
